Data set [1] deals with cytochrome P450 hydroxylase (PikC) (Streptomyces venezuelae, UniProt O87605). The data set is described as follows: Incubation with purified PikC in vitro (aglycone hydroxylation). It counts as biochemical. The source says:
Another noteworthy, albeit unexpected result was the fact that the aglycone of the isolated macrolide 31 was 10-deoxymethynolide instead of methymycin and neomethymycin analogues that are hydroxylated. […] It is possible that the cytochrome P450 hydroxylase (PikC), which catalyzes the hydroxylation of 10-deoxymethynolide and narbonolide (Xue et al., 1998) is sensitive to structural variations on the appended sugar. […] A similar observation was also noted in the case where desosamine was replaced by quinovose (Example 4). It could be argued that the presence of a substituent (either hydroxyl or amino group) at C-4 in the sugar moiety is responsible, at least in part, for decreasing or preventing hydroxylation of the macrolide.

For data set [2], the system named is Streptococcus pyogenes. The data set is described as follows: Antibiotic activity, filter paper disc test on agar plates. It counts as cell-based. As to conditions: for activity against Streptococcus pyogenes grown on Mueller-Hinton agar plates: purified compounds; for antibiotic activity against Streptococcus pyogenes (inhibition zone around disc): 20 μL of each sample (1.6 mM in MeOH) on filter paper discs, Mueller-Hinton agar plates, overnight at 37° C. How it is done: The antibiotic activity of a compound of formula (13) and (14) against Streptococcus pyogenes was examined by separately applying 20 μL of each sample (1.6 mM in MeOH) to sterilized filter paper discs which were placed onto the surface of S. pyogenes grown on Mueller-Hinton agar plates (Mangahas, 1996).

Data set [3] concerns the target T1, DesI (Streptomyces venezuelae, UniProt Q9ZGH0).
T1 sequence (Q9ZGH0 1-415): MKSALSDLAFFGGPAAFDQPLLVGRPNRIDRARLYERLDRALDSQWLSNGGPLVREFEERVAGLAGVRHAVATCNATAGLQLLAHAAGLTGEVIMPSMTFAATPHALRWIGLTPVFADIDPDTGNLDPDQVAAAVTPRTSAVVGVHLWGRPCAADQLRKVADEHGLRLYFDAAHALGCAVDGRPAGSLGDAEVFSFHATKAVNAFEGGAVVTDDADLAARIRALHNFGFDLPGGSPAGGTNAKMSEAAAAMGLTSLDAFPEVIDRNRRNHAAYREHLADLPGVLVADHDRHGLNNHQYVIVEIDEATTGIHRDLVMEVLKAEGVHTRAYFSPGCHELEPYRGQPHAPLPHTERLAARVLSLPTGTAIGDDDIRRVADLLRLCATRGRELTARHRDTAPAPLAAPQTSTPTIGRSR
The data set is described as follows: Incubation with purified DesI in the presence of L-glutamate, HPLC analysis; 4-aminotransferase kinetics. In kind it is biochemical. An excerpt:
To verify the catalytic function of DesI, the desI gene was amplified by PCR and cloned into the pET-28b(+) expression vector (Novagen) with a His6-tag at the N-terminus. The produced DesI protein was purified to near homogeneity by a Ni-NTA column (Qiagen) followed by FPLC on a MonoQ column.

Data set [4] has as its system DNA. As to conditions: tight DNA binding, literature; cited from earlier work.
Substrate in data set [5]: Cc1cn([C@H]2C[C@H](O)[C@@H](COP(=O)(O)OP(=O)(O)O[C@H]3O[C@H](C)C(=O)[C@H](O)[C@H]3O)O2)c(=O)[nH]c1=O
The data set is described as follows: Incubation with purified DesI in the presence of L-glutamate, HPLC analysis; 4-aminotransferase kinetics. In kind it is biochemical, Streptomyces venezuelae. As to conditions: other: DesI as PLP-dependent 4-aminotransferase, sugar substrate 6.

Chain of cytochrome P450 hydroxylase (PikC) (O87605 whole entry): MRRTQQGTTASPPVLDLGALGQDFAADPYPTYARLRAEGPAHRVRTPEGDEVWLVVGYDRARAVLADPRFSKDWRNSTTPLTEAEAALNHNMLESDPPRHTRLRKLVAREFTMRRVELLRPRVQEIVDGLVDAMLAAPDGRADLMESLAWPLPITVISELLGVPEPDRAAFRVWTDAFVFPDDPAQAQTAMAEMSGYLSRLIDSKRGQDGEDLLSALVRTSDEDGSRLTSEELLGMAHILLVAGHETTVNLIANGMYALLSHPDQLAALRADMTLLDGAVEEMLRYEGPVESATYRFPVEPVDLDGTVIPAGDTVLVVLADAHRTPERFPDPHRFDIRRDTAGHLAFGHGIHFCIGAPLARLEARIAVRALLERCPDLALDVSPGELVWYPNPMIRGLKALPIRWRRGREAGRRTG

`CCC1OC(=O)C(C)C(OC2OC(C)C(NC(C)=O)C(O)C2O)C(C)CC(C)C(=O)C=CC1C` (centres unmarked) [compound 31]: the “aglycone hydroxylation on incubation with purified PikC” value in data set [1] was “no aglycone hydroxylation was discernible”. The “activity against Streptococcus pyogenes grown on Mueller-Hinton agar plates” value (shortened to “activity … on Mueller-Hinton agar plates”) in data set [2] is “inactive”. For `CCC1OC(=O)C(C)C(=O)C(C)C(OC2OC(C)C(NC(C)=O)C(O)C2O)C(C)CC(C)C(=O)C=CC1C` (centres unmarked) [compound 32], in that order: “no aglycone hydroxylation was discernible” and “inactive”. As for `Cc1cn(C2CC(O)C(COP(=O)(O)OP(=O)(O)OC3OC(C)C(O)C(=O)C3O)O2)c(=O)[nH]c1=O` [TDP-3-keto-deoxy-D-glucose (7), TDP-3-keto-deoxy-D-glucose], the “consumption of substrate / formation of new product by DesI” value in data set [3] is listed as “no consumption”. On to `C[C@@H]1C[C@H](N(C)C)[C@@H](O)[C@H](O[C@H]2[C@@H](C)C[C@@H](C)C(=O)/C=C/[C@@H](C)[C@@H]([C@@H](C)O)OC(=O)[C@@H]2C)O1` [formula (2), neomethymycin], for which, in data set [2], the “antibiotic activity against Streptococcus pyogenes (inhibition zone around disc)” value was “clearly visible inhibition zones” and the “activity … on Mueller-Hinton agar plates” value is “clearly visible inhibition zones”. Turning to `CC[C@H]1OC(=O)[C@H](C)[C@@H](O[C@@H]2O[C@H](C)C[C@H](N(C)C)[C@H]2O)[C@@H](C)C[C@@H](C)C(=O)/C=C/[C@]1(C)O` [formula (1), methymycin], in data set [2], the “antibiotic activity against Streptococcus pyogenes (inhibition zone around disc)” value is “clearly visible inhibition zones” and the “activity … on Mueller-Hinton agar plates” value is “clearly visible inhibition zones”. In the case of `CC1CC(N(C)C)C(O[C@@H]2O[C@H](CO)[C@@H](O)[C@H](O)[C@H]2O)C(OC2C(C)CC(C)C(=O)C=CC(C)C(C(C)O)OC(=O)C2C)O1` (stereo partly drawn) [formula (14), C-2′β-glucosylated neomethymycin], the “antibiotic activity against Streptococcus pyogenes (inhibition zone around disc)” value in data set [2] was “no such clearings were discernible”. As to `CC[C@H]1OC(=O)[C@H](C)C(=O)[C@H](C)[C@@H](O[C@@H]2O[C@H](C)C[C@H](N(C)C)[C@H]2O)[C@@H](C)C[C@@H](C)C(=O)/C=C/[C@]1(C)O` [pikromycin], the “activity … on Mueller-Hinton agar plates” value in data set [2] is “clearly visible inhibition zones”. Regarding `CCC1OC(=O)C(C)C(OC2OC(C)CC(N(C)C)C2O[C@@H]2O[C@H](CO)[C@@H](O)[C@H](O)[C@H]2O)C(C)CC(C)C(=O)C=CC1(C)O` (stereo partly drawn) [formula (13), C-2′β-glucosylated methymycin], the “antibiotic activity against Streptococcus pyogenes (inhibition zone around disc)” value in data set [2] is listed as “no such clearings were discernible”. For calicheamicin [calicheamicin (26)], the “Ka (DNA binding)” value in data set [4] is 10^6-10^8.

B1: DesI (Streptomyces venezuelae) (protein)
chain: T1 sequence (Q9ZGH0 1-415)
B1: in data set [5], the Michaelis constant (Km) (usually the concentration of substrate that gives half-maximal velocity) was found to be 130 ± 4 µM.

These data come from US20040161839A1, “Method to alter sugar moieties” (priority 2003, published 2004).
